Patent US12310236B2, “Encapsulant preventing lead leakage on perovskite, method for encapsulating perovskite to prevent lead leakage and perovskite photosensitive device comprising the same” (PUKYONG NATIONAL UNIVERSITY INDUSTRY—UNIVERSITY COOPERATION …, priority 2023, dated 2025)

Assay: Solvent solubility of the crown ether compounds in the coating solution
Format: physicochemical
Conditions: ethanol coating solution
Procedure: We prepared a coating solution for performing the perovskite encapsulating method. 18-crown-6-ether (hereafter, referred to as a raw material) was prepared as the crown ether. A compound (hereinafter, referred to as di-benzo) in which only two benzene rings are bonded to the crown ether was prepared as a comparative group. […] The di-benzo was dissolved in ethanol at 0.01 to 0.03% by weight. […] Thus, resulting solutions were prepared.

With `c1ccc2c(c1)OCCOCCOc1ccccc1OCCOCCO2` [di-benzo] the solvent solubility was ≤ 0.03 % by weight.
